Test results from PubChem BioAssay AID248 (DTP/NCI, 2004).
Values joined by “and” are separate entries in the source; they are usually repeats but may differ in a detail not shown here. Identical values can stand only once. Inconclusive results and toxic doses are left out. No stated cut-off is given here; in the data, active means T/C of 150% or more; inactive means T/C below 125%.

Test system: L1210 leukemia ip in BDF1 mice, survival T/C
Assay: NCI In Vivo Anticancer Drug Screen. Data for tumor model L1210 Leukemia (intraperitoneal) in B6D2F1 (BDF1) mice
Details: endpoint: mean survival time, higher = longer survival
Procedure, shortened: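 Tumor was transplanted into mice, which were then dosed with test compound or vehicle alone. Survival was recorded for each group, and the treated figure was expressed relative to the control figure.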

[1] = dose: 100.0 mg/kg/injection, schedule: Q01DX009 (ip), vehicle: saline
[2] = dose: 100.0 mg/kg/injection, schedule: Q04DX003 (ip), vehicle: saline
[3] = dose: 200.0 mg/kg/injection, schedule: Q01DX009 (ip), vehicle: saline
[4] = dose: 200.0 mg/kg/injection, schedule: Q04DX003 (ip), vehicle: saline
[5] = dose: 400.0 mg/kg/injection, schedule: Q01DX009 (ip), vehicle: saline
[6] = dose: 400.0 mg/kg/injection, schedule: Q04DX003 (ip), vehicle: saline
[7] = dose: 100.0 mg/kg/injection, schedule: Q01DX009 (ip), vehicle: saline with Tween-80
[8] = dose: 200.0 mg/kg/injection, schedule: Q01DX009 (ip), vehicle: saline with Tween-80
[9] = dose: 100.0 mg/kg/injection, schedule: Q04DX003 (ip), vehicle: saline with Tween-80
[10] = dose: 100.0 mg/kg/injection, schedule: Q04DX003 (ip), vehicle: Klucel (hydroxypropylcellulose) (HPC)
[11] = dose: 200.0 mg/kg/injection, schedule: Q04DX003 (ip), vehicle: Klucel (hydroxypropylcellulose) (HPC)
[12] = dose: 400.0 mg/kg/injection, schedule: Q04DX003 (ip), vehicle: Klucel (hydroxypropylcellulose) (HPC)
[13] = dose: 100.0 mg/kg/injection, schedule: Q01DX001 (ip), vehicle: saline with Tween-80
[14] = dose: 200.0 mg/kg/injection, schedule: Q01DX001 (ip), vehicle: saline with Tween-80
[15] = dose: 400.0 mg/kg/injection, schedule: Q01DX001 (ip), vehicle: saline with Tween-80
[16] = dose: 400.0 mg/kg/injection, schedule: Q01DX009 (ip), vehicle: saline with Tween-80

Measured: T/C

CN1CCN(C(=S)[S-])CC1.CN1CCN(C(=S)[S-])CC1.[Zn]
inactive: dose: 2.5 mg/kg/injection, schedule: Q01DX009 (ip), vehicle: acetone 96 % of control | dose: 5.0 mg/kg/injection, schedule: Q01DX009 (ip), vehicle: acetone 96 % of control | dose: 5.0 mg/kg/injection, schedule: Q04DX003 (ip), vehicle: acetone 100 % of control | dose: 10.0 mg/kg/injection, schedule: Q01DX001 (ip), vehicle: saline 91 % of control | dose: 10.0 mg/kg/injection, schedule: Q01DX009 (ip), vehicle: acetone 108 % of control | dose: 10.0 mg/kg/injection, schedule: Q04DX003 (ip), vehicle: acetone 92 % of control | dose: 20.0 mg/kg/injection, schedule: Q01DX001 (ip), vehicle: saline 91 % of control | dose: 20.0 mg/kg/injection, schedule: Q04DX003 (ip), vehicle: acetone 92 % of control

CC1(C#N)CCC2c3ccccc3CCC2C1=O (stereo unspecified)
inactive: [1] 95 % of control | [2] 100 % of control | [3] 96 % of control | [4] 98 % of control | [5] 106 % of control | [6] 97 % of control

CN1C(=O)C2C(N=CN2C)N(C)C1=O (stereo unspecified)
inactive: [7] 96 % of control | [8] 90 % of control

O=C(NO)c1cccc(C(=O)NO)n1
inactive: dose: 237.0 mg/kg/injection, schedule: Q01DX015 (ip), vehicle: water 113 % of control | dose: 356.0 mg/kg/injection, schedule: Q01DX015 (ip), vehicle: water 114 % of control | dose: 533.0 mg/kg/injection, schedule: Q01DX015 (ip), vehicle: water 104 % of control

CCCCN(C(C)(C)C(SSSC(c1ccc(Cl)cc1)C(C)(C)N(CCCC)S(C)(=O)=O)c1ccc(Cl)cc1)S(C)(=O)=O (stereo unspecified)
inactive: [7] 96 % of control | [8] 86 % of control

CC(=O)OC(C)(C)/C=C/C(=O)C(C)(O)C1C(O)CC2(C)C3CC=C4C(C=C(OC5OC(CO)C(O)C(O)C5O)C(=O)C4(C)C)C3(C)C(=O)CC12C (stereo unspecified)
inactive: dose: 25.0 mg/kg/injection, schedule: Q04DX002 (ip), vehicle: saline with Tween-80 98 % of control | dose: 50.0 mg/kg/injection, schedule: Q04DX002 (ip), vehicle: saline with Tween-80 98 % of control | dose: 100.0 mg/kg/injection, schedule: Q04DX002 (ip), vehicle: saline with Tween-80 96 % of control and 105 % of control

O=c1[nH]cnc2sc3c(c12)CCCC3
inactive: dose: 100.0 mg/kg/injection, schedule: Q01DX009 (ip), vehicle: saline sonified 94 % of control | dose: 100.0 mg/kg/injection, schedule: Q04DX003 (ip), vehicle: saline sonified 92 % of control | dose: 200.0 mg/kg/injection, schedule: Q01DX009 (ip), vehicle: saline sonified 116 % of control | dose: 200.0 mg/kg/injection, schedule: Q04DX003 (ip), vehicle: saline sonified 98 % of control | dose: 400.0 mg/kg/injection, schedule: Q01DX009 (ip), vehicle: saline sonified 100 % of control | dose: 400.0 mg/kg/injection, schedule: Q04DX003 (ip), vehicle: saline sonified 101 % of control

CN(C)c1ccc(/C=C2\C=Cc3ccccc32)cc1Br
inactive: [9] 101 % of control

O=[N+]([O-])c1ncn(Cc2ccccc2)c1Br
inactive: [10] 91 % of control | [11] 94 % of control | [12] 89 % of control

O=C(O)C1C2CC(O)C(C2)C1C(=O)O (stereo unspecified)
inactive: [13] 94 % of control | [7] 93 % of control | [1] 105 % of control | [2] 94 % of control | [14] 98 % of control | [8] 95 % of control | [3] 105 % of control | [4] 96 % of control | [15] 100 % of control | [16] 96 % of control | [5] 98 % of control | [6] 93 % of control

OCC(O)C(O)C(O)C(O)C(O)c1nc2ccccc2[nH]1 (stereo unspecified)
inactive: [7] 101 % of control | [9] 97 % of control | [8] 98 % of control | dose: 200.0 mg/kg/injection, schedule: Q04DX003 (ip), vehicle: saline with Tween-80 93 % of control | [16] 96 % of control | dose: 400.0 mg/kg/injection, schedule: Q04DX003 (ip), vehicle: saline with Tween-80 103 % of control

CS(=O)(=O)OCC(=O)COS(C)(=O)=O
inactive: dose: 1.25 mg/kg/injection, schedule: Q01DX009 (ip), vehicle: saline 95 % of control | dose: 2.5 mg/kg/injection, schedule: Q01DX009 (ip), vehicle: saline 93 % of control | dose: 10.0 mg/kg/injection, schedule: Q01DX009 (ip), vehicle: saline 116 % of control

CC1(C)CCC(=NO)CC1
inactive: dose: 75.0 mg/kg/injection, schedule: Q01DX001 (ip), vehicle: other 103 % of control | dose: 150.0 mg/kg/injection, schedule: Q01DX001 (ip), vehicle: other 97 % of control

COc1cc2c(cc1OCc1ccccc1)C(C#N)N(C(=O)c1ccccc1)C=C2 (stereo unspecified)
inactive: dose: 25.0 mg/kg/injection, schedule: Q01DX009 (ip), vehicle: saline 98 % of control | dose: 50.0 mg/kg/injection, schedule: Q01DX009 (ip), vehicle: saline 100 % of control | [1] 93 % of control | [3] 86 % of control

CC(/C=N/NC(N)=S)Cc1ccc(C(C)C)cc1 (stereo unspecified)
inactive: dose: 12.5 mg/kg/injection, schedule: Q04DX003 (ip), vehicle: saline with Tween-80 98 % of control | dose: 18.0 mg/kg/injection, schedule: Q01DX009 (ip), vehicle: alcohol 95 % of control | dose: 28.0 mg/kg/injection, schedule: Q01DX009 (ip), vehicle: alcohol 95 % of control

Cc1cc(=O)oc2c1ccc1c(O)cccc12
inactive: dose: 100.0 mg/kg/injection, schedule: Q01DX001 (ip), vehicle: carboxymethylcellulose (CMC) 103 % of control | dose: 200.0 mg/kg/injection, schedule: Q01DX001 (ip), vehicle: carboxymethylcellulose (CMC) 97 % of control | dose: 400.0 mg/kg/injection, schedule: Q01DX001 (ip), vehicle: carboxymethylcellulose (CMC) 94 % of control

O=C(O)C(CCc1ccccc1)N1CCOCC1 (stereo unspecified)
inactive: [1] 100 % of control | [3] 101 % of control | [5] 103 % of control

CC1=C(C)Cc2c(-c3ccc(Cl)cc3)oc(-c3ccc(Cl)cc3)c2C1
inactive: [10] 100 % of control | [11] 97 % of control | [12] 94 % of control

Nc1cccc(CNC(=O)COc2ccc(Cl)cc2C(=O)O)c1
inactive: [13] 98 % of control | [14] 95 % of control | [15] 103 % of control

O=C(O)c1c(O)cc(=O)oc1-c1ccc(Cl)cc1Cl
inactive: dose: 75.0 mg/kg/injection, schedule: Q01DX001 (ip), vehicle: saline 101 % of control | dose: 150.0 mg/kg/injection, schedule: Q01DX001 (ip), vehicle: saline 101 % of control | dose: 300.0 mg/kg/injection, schedule: Q01DX001 (ip), vehicle: saline 106 % of control

O=C(OCC1OC(Cl)C(OC(=O)c2ccccc2)C1OC(=O)c1ccccc1)c1ccccc1 (stereo unspecified)
inactive: dose: 100.0 mg/kg/injection, schedule: Q01DX001 (sc), vehicle: olive oil, sesame oil, peanut oil 100 % of control | dose: 200.0 mg/kg/injection, schedule: Q01DX001 (sc), vehicle: olive oil, sesame oil, peanut oil 100 % of control | dose: 400.0 mg/kg/injection, schedule: Q01DX001 (sc), vehicle: olive oil, sesame oil, peanut oil 96 % of control

COc1ccccc1NC(=S)Nc1ccccc1
inactive: dose: 100.0 mg/kg/injection, schedule: Q04DX002 (ip), vehicle: Klucel (hydroxypropylcellulose) (HPC) 97 % of control | dose: 200.0 mg/kg/injection, schedule: Q04DX002 (ip), vehicle: Klucel (hydroxypropylcellulose) (HPC) 101 % of control | dose: 400.0 mg/kg/injection, schedule: Q04DX002 (ip), vehicle: Klucel (hydroxypropylcellulose) (HPC) 108 % of control

NC(N)=NCCN=C(N)N
inactive: dose: 15.0 mg/kg/injection, schedule: Q01DX Z (oral), vehicle: saline 97 % of control | dose: 30.0 mg/kg/injection, schedule: Q01DX Z (oral), vehicle: saline 103 % of control | dose: 60.0 mg/kg/injection, schedule: Q01DX Z (oral), vehicle: saline 101 % of control | dose: 120.0 mg/kg/injection, schedule: Q01DX Z (oral), vehicle: saline 95 % of control

CCOC(=O)/C=C/C(=O)O.[Cu+2]
inactive: dose: 3.12 mg/kg/injection, schedule: Q04DX003 (ip), vehicle: saline 94 % of control | dose: 6.25 mg/kg/injection, schedule: Q04DX003 (ip), vehicle: saline 89 % of control and 91 % of control
